Converted amounts (≈) assume the structure as drawn.
Legend:
[1] = tested on: HCMV recombinant mutant virus (RV145); test: HCMV microtiter plate assay (beta-glucuronidase reporter); format: cell-based, Human Cytomegalovirus; conditions: for IC50: Human betaherpesvirus 5, Fibroblast, read-out: IC50 (ug/ml) HCMV; for IC50 (ug/ml) HCMV: HCMV in human foreskin fibroblasts
Procedure, shortened: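 Replication was read out as virus-encoded β-glucuronidase activity, measured with a chromogenic or fluorogenic glucuronide substrate in cell lysates at 96 h post-infection. Infection of human foreskin fibroblasts with RV145 took place with compound present. IC50 was derived from a range of inhibitor amounts.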

[2] = tested on: HSV-1; test: HSV Antiviral (ELISA) assay; format: cell-based; conditions: for IC50: Human alphaherpesvirus 1, HSV-1 in Vero cells, read-out: IC50 (ug/ml) HSV; for IC50 (ug/ml) HSV: HSV-1 in Vero cells
Procedure, shortened: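 Replication measured as glycoprotein D signal in fixed cells: anti-gD antibody plus β-galactosidase-linked secondary, fluorogenic substrate read at 365/450 nm. Vero cells (2% FBS DMEM) received compound 30 min pre-infection, HSV-1 MOI 0.006, ~24 h incubation; IC50 relative to no-compound fluorescence.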

[3] = tested on: VZV strain Ellen; test: VZV Antiviral (ELISA) assay; format: cell-based; conditions: for inhibition at 10 µg/mL: Human alphaherpesvirus 3, read-out: % inhibition 10 ug/ml VZV, at 10 ug/ml, VZV strain Ellen in HFF cells; for IC50 (ug/ml) VZV / % inhibition 10 ug/ml VZV: VZV strain Ellen in HFF cells; for % inhibition 10 ug/ml VZV: at 10 ug/ml; for IC50: Human alphaherpesvirus 3, VZV strain Ellen in HFF cells, read-out: IC50 (ug/ml) VZV
Procedure, shortened: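 HFF cells infected with VZV Ellen at low multiplicity (<0.1) overnight were seeded at 3.5×10^4 cells/well in DMEM with 2% FBS plus compound and incubated three days at 37° C., 5% CO2. Viral replication was read by ELISA against glycoprotein II with β-galactosidase fluorogenic readout (ex 365/em 450 nm); IC50 relative to no-compound fluorescence.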

SMILES | IC50 [1] | IC50 [2] | inhibition at 10 µg/mL [3] | IC50 (ug/ml) HCMV [1] | IC50 (ug/ml) HSV [2] | IC50 (ug/ml) VZV [3] | % inhibition 10 ug/ml VZV [3] | IC50 [3]
O=C(Nc1ccc(NC(=S)Nc2cccc(S(=O)(=O)CCO)c2)cc1)c1ccccc1F [Example 1019, 2-Fluoro-N-(4-{3-[3-(2-hydroxy-ethanesulfonyl)-phenyl]-thioureido} -phenyl)-benzamide] | 1.5 µg/mL (≈ 3.17 µM) | > 10 µg/mL | 2% | – | – | – | – | –
O=C(Nc1ccc(NC(=S)NCCc2ccc(F)cc2)cc1)c1ccco1 [Example 561] | – | – | – | 0.05 µg/mL (≈ 0.13 µM) | >10 µg/mL | 8 µg/mL (≈ 20.9 µM) | – | –
CC(O)c1cccc(NC(=S)Nc2ccc(NC(=O)c3csnn3)cc2)c1 (stereo not shown) [Example 464] | – | – | – | 0.15 µg/mL (≈ 0.375 µM) | >10 µg/mL | >10 µg/mL | 25% | –
Cc1nc(C(=O)Nc2ccc(NC(=S)Nc3cc(C(F)(F)F)cc(C(F)(F)F)c3)cc2)cs1 [Example 1140, 2-Methyl-thiazole-4-carboxylic acid {4-[3-(3,5-bis-trifluoromethyl-phenyl)-thioureido]-phenyl}-amide] | 1.6 µg/mL (≈ 3.17 µM) | 3.5 µg/mL (≈ 6.94 µM) | – | – | – | – | – | 4 µg/mL (≈ 7.93 µM)
Nc1c(Cl)cc(C(F)(F)F)cc1NC(=S)Nc1ccc(NC(=O)c2ccco2)cc1 [Example 530] | – | – | – | 0.15 µg/mL (≈ 0.33 µM) | 5 µg/mL (≈ 11 µM) | 6 µg/mL (≈ 13.2 µM) | 96% | –
CC(=O)Nc1ccc(NC(=S)Nc2ccc(C)c(Cl)c2)cc1 [Example 939, N-{4-[3-(3-Chloro-4-methyl-phenyl)-thioureido]-phenyl} -acetamide] | 0.018 µg/mL (≈ 0.0539 µM) | > 10 µg/mL | 53% | – | – | – | – | 15 µg/mL (≈ 44.9 µM)
Nc1c(Br)cc(NC(=S)Nc2ccc(NC(=O)c3csnn3)cc2)cc1Br [Example 521] | – | – | – | 0.04 µg/mL (≈ 0.0757 µM) | 10 µg/mL (≈ 18.9 µM) | 3 µg/mL (≈ 5.68 µM) | 97% | –
O=C(Nc1ccc(NC(=S)Nc2cccc(I)c2)cc1)c1csnn1 [Example 508] | – | – | – | 0.013 µg/mL (≈ 0.027 µM) | >10 µg/mL | >10 µg/mL | 7% | –
CN(C)c1cc(Cl)cc(NC(=S)Nc2ccc(NC(=O)c3ccco3)cc2)c1 [Example 524] | – | – | – | 0.055 µg/mL (≈ 0.133 µM) | 4 µg/mL (≈ 9.64 µM) | 2 µg/mL (≈ 4.82 µM) | 95% | –
O=C(Nc1ccc(NC(=S)NCCc2ccc(Br)cc2)cc1)c1csnn1 [Example 606] | – | – | – | 0.0023 µg/mL (≈ 0.00497 µM) | >10 µg/mL | >10 µg/mL | – | –
O=C(Nc1ccc(NC(=S)Nc2cc(N3CCOCC3)cc(C(F)(F)F)c2)cc1)c1csnn1 [Example 559] | – | – | – | 0.012 µg/mL (≈ 0.0236 µM) | >10 µg/mL | >10 µg/mL | – | –
CN(C)c1ccc(NC(=S)Nc2ccc(NC(=O)c3ccco3)cc2)cc1Cl [Example 330] | – | – | – | 0.15 µg/mL (≈ 0.362 µM) | >10 µg/mL | >10 µg/mL | 29% | –
CC(O)c1ccc(NC(=S)Nc2ccc(NC(=O)c3ccco3)cc2)cc1Cl (stereo not shown) [Example 917, Furan-2-carboxylic acid (4-{3-[3-chloro-4-(1-hydroxy-ethyl)-phenyl]-thioureido}-phenyl)-amide] | 0.2 µg/mL (≈ 0.481 µM) | 10 µg/mL (≈ 24 µM) | – | – | – | – | – | > 10 µg/mL
O=C(Nc1ccc(NC(=S)NCCc2cc(F)cc(C(F)(F)F)c2)cc1)c1csnn1 [Example 762] | – | – | – | 0.002 µg/mL (≈ 0.00426 µM) | >10 µg/mL | 1.5 µg/mL (≈ 3.19 µM) | – | –
O=C(CN1CCCCC1)Nc1ccc(NC(=S)Nc2ccc(NC(=O)c3ccco3)cc2)cc1Cl [Example 365] | – | – | – | 0.035 µg/mL (≈ 0.0684 µM) | 10 µg/mL (≈ 19.5 µM) | 5 µg/mL (≈ 9.76 µM) | 75% | –
O=C(Nc1ccc(NC(=S)Nc2ccc(Cl)cc2)cc1)c1ccccc1F [Example 996, N-{4-[3-(4-Chloro-phenyl)-thioureido]-phenyl}-2-fluoro-benzamide] | 0.15 µg/mL (≈ 0.375 µM) | 10 µg/mL (≈ 25 µM) | – | – | – | – | – | > 10 µg/mL
O=C(Nc1ccc(NC(=S)Nc2cc(Cl)cc(Cl)c2)cc1)c1csnn1 [Example 921, [1,2,3]Thiadiazole-4carboxylic acid {4-[3-(3,5-dichloro-phenyl)-thioureido]-phenyl}-amide] | 0.05 µg/mL (≈ 0.118 µM) | 8 µg/mL (≈ 18.9 µM) | 85% | – | – | – | – | 7 µg/mL (≈ 16.5 µM)
N#Cc1cccc(NC(=S)Nc2ccc(NC(=O)c3csnn3)cc2)c1 [Example 453] | – | – | – | 0.07 µg/mL (≈ 0.184 µM) | >10 µg/mL | 3 µg/mL (≈ 7.89 µM) | – | –

SMILES | IC50 [1] | IC50 [2] | inhibition at 10 µg/mL [3] | IC50 (ug/ml) HCMV [1] | IC50 (ug/ml) HSV [2] | IC50 (ug/ml) VZV [3] | % inhibition 10 ug/ml VZV [3] | IC50 [3]
CC(NC(=S)Nc1ccc(NC(=O)c2cnccn2)cc1)c1ccc(F)cc1 (stereo not shown) [Example 1127, Pyrazine-2-carboxylic acid (4-{3-[1-(4-fluoro-phenyl)-ethyl]-thioureido}-phenyl)-amide] | 1 µg/mL (≈ 2.53 µM) | 9.5 µg/mL (≈ 24 µM) | – | – | – | – | – | 3.7 µg/mL (≈ 9.36 µM)
Cc1cc(NC(=S)NC(C)c2ccc(F)cc2)ccc1NC(=O)c1cc2ccccc2cn1 (stereo not shown) [Example 1126, Isoquinoline-3-carboxylic acid (4-{3-[1-(4-fluoro-phenyl)-ethyl]-thioureido}-2-methyl-phenyl)-amide] | 5.8 µg/mL (≈ 12.6 µM) | > 10 µg/mL | – | – | – | – | – | 0.7 µg/mL (≈ 1.53 µM)
CN1CCC(N(C)c2ccc(NC(=S)Nc3ccc(NC(=O)c4csnn4)cc3)cc2Cl)CC1 [Example 904, [1,2,3]Thiadiazole-4-carboxylic acid [4-(3-{3-chloro-4-[methyl-(1-methyl-piperidin-4-yl)-amino]-phenyl}-thioureido)-phenyl]-amide] | 0.4 µg/mL (≈ 0.775 µM) | 12 µg/mL (≈ 23.3 µM) | 58% | – | – | – | – | > 10 µg/mL
O=C(Nc1ccc(NC(=S)Nc2ccc3scnc3c2)cc1)c1ccco1 [Example 482] | – | – | – | 0.3 µg/mL (≈ 0.76 µM) | 9 µg/mL (≈ 22.8 µM) | >10 µg/mL | 33% | –
CCCCc1nc(C(=O)Nc2ccc(NC(=S)Nc3ccc(Cl)c(C(F)(F)F)c3)cc2)cs1 [Example 1135, 2-Butyl-thiazole-4-carboxylic acid {4-[3-(4-chloro-3-trifluoromethyl-phenyl)-thioureido]-phenyl}-amide] | 1.3 µg/mL (≈ 2.53 µM) | 3.6 µg/mL (≈ 7.02 µM) | – | – | – | – | – | 7.5 µg/mL (≈ 14.6 µM)
CN(C)c1cc(Cl)cc(NC(=S)Nc2ccc(NC(=O)c3csnn3)cc2)c1 [Example 522] | – | – | – | 0.025 µg/mL (≈ 0.0577 µM) | >10 µg/mL | >10 µg/mL | 32% | –
COc1cccc(CCNC(=S)Nc2ccc(NC(=O)c3ccco3)cc2)c1 [Example 607] | – | – | – | 0.09 µg/mL (≈ 0.228 µM) | 8 µg/mL (≈ 20.2 µM) | >10 µg/mL | – | –
O=C(Nc1ccc(NC(=S)Nc2cc(N3CCCC3)cc(C(F)(F)F)c2)cc1)c1csnn1 [Example 560] | – | – | – | 0.008 µg/mL (≈ 0.0162 µM) | >10 µg/mL | >10 µg/mL | – | –
O=C(Nc1ccc(NC(=S)Nc2ccc(SC(F)(F)F)c(Cl)c2)cc1)c1ccco1 [Example 551] | – | – | – | 0.043 µg/mL (≈ 0.0911 µM) | >10 µg/mL | >10 µg/mL | – | –
O=C(Nc1ccc(NC(=S)Nc2cccc(C(F)(F)F)c2)cc1)c1ccco1 [Example 431] | – | – | – | 0.06 µg/mL (≈ 0.148 µM) | >10 µg/mL | >10 µg/mL | – | –
O=C(Nc1ccc(NC(=S)NCc2cccc(Cl)c2)cc1)c1ccco1 [Example 510] | – | – | – | 0.04 µg/mL (≈ 0.104 µM) | 8 µg/mL (≈ 20.7 µM) | >10 µg/mL | 19% | –
Nc1cccc(NC(=S)Nc2ccc(NC(=O)c3csnn3)cc2)c1 [Example 918, [1,2,3]Thiadiazole-4-carboxylic acid {4-[3-(3-amino-phenyl)-thioureido]-phenyl}-amide] | 0.03 µg/mL (≈ 0.081 µM) | > 10 µg/mL | – | – | – | – | – | > 10 µg/mL
O=C(Nc1ccc(NC(=S)NCCc2cc(C(F)(F)F)cc(C(F)(F)F)c2)cc1)c1csnn1 [Example 599] | – | – | – | 0.005 µg/mL (≈ 0.00962 µM) | >10 µg/mL | >10 µg/mL | – | –
O=C(Nc1ccc(NC(=O)c2ccco2)cc1)Nc1cc(C(F)(F)F)cc(C(F)(F)F)c1 [Example 88, Furan-2-carboxylic acid {4-[3-(3,5-bis-trifluoromethyl-phenyl)-ureido]-phenyl}-amide] | 0.013 µg/mL (≈ 0.0284 µM) | > 10 µg/mL | – | – | – | – | – | 0.03 µg/mL (≈ 0.0656 µM)
COc1cc(OC)c(NC(=S)Nc2ccc(NC(=O)c3snnc3-c3ccoc3)cc2)cc1Cl [Example 288] | – | – | – | 4 µg/mL (≈ 7.75 µM) | >10 µg/mL | >10 µg/mL | 30% | –
COc1cc(OC)c(NC(=S)Nc2ccc(NC(=O)c3c[nH]nn3)cc2)cc1Cl [Example 174] | – | – | – | 6 µg/mL (≈ 13.9 µM) | 50 µg/mL (≈ 116 µM) | >10 µg/mL | 8% | –
Cc1cccc(NC(=S)Nc2ccc(NC(=O)c3csnn3)cc2)c1 [Example 456] | – | – | – | 0.07 µg/mL (≈ 0.189 µM) | >10 µg/mL | >10 µg/mL | 12% | –

— patent publication US6426355B1, “Heterocyclic carboxamide-containing thiourea inhibitors of herpes viruses containing phenylenediamine group” (American Home Products, priority 1998, dated 2002)
